We go through two molecules from patent EP4610257A1, “CRYSTAL FORM OF ISOQUINOLINONE COMPOUND AND PREPARATION METHOD THEREFOR” (Jiangsu Hengrui Pharmaceuticals Co., Ltd., priority 2022, dated 2024).

The target in series [1] is PDE3A (Homo sapiens, UniProt Q14432). Kind of series: In vitro PDE3A enzyme activity assay, IMAP FP-based.
A short description of series [2]: in vivo. The settings on record: both sexes, ICR, mouse, inhaled or intranasal. More on the design: species or system ICR mice. Here is the method: Test Example 3: PK Assay by Intratracheal Administration
Time points for plasma collection were: 0.25 h, 0.5 h, 1 h, 2 h, 4 h, 8 h, 12 h, and 24 h. […] Time points for lung tissue collection were: 0.5 h, 2 h, 8 h, and 24 h.
30.0 µL of plasma sample was added to a 1.5 mL centrifuge tube, and 150 µL of an internal standard working solution was added. […] 70.0 µL of the supernatant was added to a 96-well plate, and 70.0 µL of deionized water was added. The resulting mixture was well shaken, and 2.00 µL of the mixture was taken for LC-MS/MS analysis.
An appropriate amount of the lung tissue sample was accurately weighed out and placed into a homogenate tube, and acetonitrile was added at a volume equivalent to 5 times the weight of the sample. The mixture was homogenized and ultrasonicated for 5 min. 20.0 µL of the lung tissue homogenate sample was taken, and 30.0 µL of an internal standard working solution and 200 µL of acetonitrile were added. […] 100 µL of the supernatant was added to a 96-well plate, and 100 µL of deionized water was added.

The target in series [3] is PDE4B1 (Homo sapiens, UniProt Q07343). The series can be described thus: In vitro PDE4B enzyme activity assay, IMAP FP-based. The settings on record: for inhibition at 2 µM: read-out: Inhibition rate (%) PDE4B1(2000 nM).
PDE4B1, sequence (Q07343 whole entry): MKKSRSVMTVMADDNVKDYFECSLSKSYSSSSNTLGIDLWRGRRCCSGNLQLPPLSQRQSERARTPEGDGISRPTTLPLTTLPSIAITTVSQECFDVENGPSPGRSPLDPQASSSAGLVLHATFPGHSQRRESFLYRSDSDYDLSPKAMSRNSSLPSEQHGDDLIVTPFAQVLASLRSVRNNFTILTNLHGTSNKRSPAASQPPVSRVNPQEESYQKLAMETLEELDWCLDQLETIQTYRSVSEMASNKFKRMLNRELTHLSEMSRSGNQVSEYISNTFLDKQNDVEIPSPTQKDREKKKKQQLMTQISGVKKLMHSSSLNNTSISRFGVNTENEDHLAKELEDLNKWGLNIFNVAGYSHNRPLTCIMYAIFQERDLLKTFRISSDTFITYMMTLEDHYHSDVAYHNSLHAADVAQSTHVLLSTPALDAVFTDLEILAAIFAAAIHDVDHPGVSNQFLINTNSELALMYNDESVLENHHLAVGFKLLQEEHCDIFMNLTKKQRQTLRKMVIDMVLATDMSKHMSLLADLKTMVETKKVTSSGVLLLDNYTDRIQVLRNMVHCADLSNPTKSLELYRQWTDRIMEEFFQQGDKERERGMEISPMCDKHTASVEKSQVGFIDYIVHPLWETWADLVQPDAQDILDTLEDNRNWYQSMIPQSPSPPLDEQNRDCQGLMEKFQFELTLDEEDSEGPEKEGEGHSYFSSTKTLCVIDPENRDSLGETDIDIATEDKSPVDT

pIC50: −log10 of the molar value.

PDE3A, sequence (Q14432 669-1141 limits assumed): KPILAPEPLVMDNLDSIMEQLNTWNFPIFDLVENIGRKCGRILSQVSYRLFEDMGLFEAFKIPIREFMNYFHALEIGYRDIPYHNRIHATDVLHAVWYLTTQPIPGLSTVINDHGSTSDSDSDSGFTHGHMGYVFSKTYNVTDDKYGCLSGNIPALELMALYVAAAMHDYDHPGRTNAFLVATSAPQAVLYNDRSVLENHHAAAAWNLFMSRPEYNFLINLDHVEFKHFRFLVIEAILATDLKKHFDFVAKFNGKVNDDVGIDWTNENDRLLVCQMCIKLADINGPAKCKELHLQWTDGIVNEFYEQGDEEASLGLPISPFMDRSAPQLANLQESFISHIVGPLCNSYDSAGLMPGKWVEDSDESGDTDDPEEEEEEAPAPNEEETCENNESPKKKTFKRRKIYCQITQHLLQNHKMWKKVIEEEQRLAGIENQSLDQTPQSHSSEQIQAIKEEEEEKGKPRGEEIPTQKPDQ

With `COc1cc2c(cc1OC)-c1cc(=Nc3c(C)cc(C)cc3C)n(CCNC(N)=O)c(=O)n1CC2` [RPL554, 9,10-dimethoxy-2-(2,4,6-trimethylphenylimino)-3-(N-carbamoyl-2-aminoethyl)-3,4,6,7-tetrahydro-2H-pyrimido[6,1-a]isoquinolin-4-one], in series [1], the pIC50 is 9.60. Besides, the inhibition at 0.5 µM in series [1] (read-out: Inhibition rate (%) PDE3A (500 nM)) was 99.2%. Also, in series [2], the half-life was 52.8 min. The Tmax in series [2] (Plasma Tmax (h)) was determined as 15 min. Also, in series [3], the pIC50 is 6.96 and the inhibition at 2 µM was determined as 64.2%.
In the case of `CCOc1cc2c(cc1OC)-c1cc(=Nc3c(C)cc(C)cc3C)n(CCN3CCOC3=O)c(=O)n1CC2` [WX001], in series [3], the pIC50 is 6.06 and the inhibition at 2 µM was found to be 66.3%.

One may read the pIC50 as −log10 of the IC50, conventionally taken in molar units. A high value points to a small IC50. In general, inhibition refers to the drop in the measured response relative to a control, in per cent. By half-life is commonly meant the time needed for the level to fall by half in the phase considered. Low readings indicate rapid decline, high ones slow decline. A word on the Tmax: it is the time at which the peak concentration occurs.
